Measured values published in US5211945A, “Compositions and methods for modulating the effect of TNF and IL-1” (priority 1986, dated 1993).
Numbered stars: 1 amine (or outer) side, 2 acyl side, 3 side chain; on linkers, the order of the positions; unused ones are H or OH. Bridge positions count the residues as written; N and C are the ends. Square brackets hold non-standard residues; d marks the D form. Peptide text beside a SMILES is read from it. I, II: the chains in the order shown. Actinocin(9to1) = Cc1c2oc3c(C)ccc(C(=O)[*:1])c3nc-2c(C(=O)[*:2])c(N)c1=O; NMeV = CN[C@H](C(=O)O)C(C)C; Sar = CNCC(=O)O

Columns and labels:
SV-80 cells = assay: Sensitization of SV-80 cells to the cytolytic effect of TNF, neutral red uptake; assay type: cell-based, human; conditions: for Cell viability upon treatment with TNF (500 U/ml), pretreatment with IL-1 (2 U/ml), OD540 / Cell viability upon treatment with TNF (500 U/ml), pretreatment with IL-1 (2 U/ml), %: 4 h pretreatment with IL-1 2 U/ml; for Cell viability upon treatment with TNF (500 U/ml), pretreatment with IL-1 (2 U/ml), OD540 / Cell viability upon treatment with TNF (500 U/ml), pretreatment with IL-1 (2 U/ml), % / Cell viability upon treatment with TNF (500 U/ml), pretreatment with TNF (20 U/ml), OD540 / Cell viability upon treatment with TNF (500 U/ml), pretreatment with TNF (20 U/ml), %: then TNF 500 U/ml for 12 h with sensitizing agent; for Cell viability upon treatment with TNF (500 U/ml), pretreatment with IL-1 (2 U/ml), % / Cell viability upon treatment with TNF (500 U/ml), pretreatment with TNF (20 U/ml), %: % of sensitizing agent alone; for Cell viability upon treatment with TNF (500 U/ml), pretreatment with TNF (20 U/ml), OD540 / Cell viability upon treatment with TNF (500 U/ml), pretreatment with TNF (20 U/ml), %: 4 h pretreatment with TNF 20 U/ml; for Cell viability in absence of TNF, OD540: 12 h with sensitizing agent alone (cycloheximide 50 μg/ml, emetine 10 μg/ml, actinomycin D 5 μg/ml); for Cell viability upon treatment with TNF (500 U/ml), no pretreatment, OD540: TNF 500 U/ml for 12 h together with sensitizing agent; for Cell viability upon treatment with TNF (500 U/ml), no pretreatment, %: TNF 500 U/ml for 12 h with sensitizing agent, % of viability with sensitizing agent alone
Description: Cytolytic and protective (desensitization) activities of the cytokines were determined in all the figures using SV-80 cells which, for measurement of cytolytic activity, were incubated with serial dilutions of the tested cytokine for 12 hours together with 50 μg/ml CHI; for measuring protective activity, they were incubated for 4 hours with the tested cytokine and then for 12 hours with TNF, at the indicated concentrations, together with 50 μg/ml CHI. The extent of cell killing was quantitated by the neutral-red uptake assay. A unit of cytolytic activity is defined as the concentration of the tested cytokine at which the amount of cells remaining viable was 50% of those that remained viable on incubation with CHI alone. A unit of protective activity is defined as that cytokine concentration protecting 50% of the cells from killing by TNF.
IL-1 or TNF provide protection not only against the cytotoxicity mediated in the presence of CHI, but also against killing of cells in which synthesis of proteins has been suppressed by other agents.
SV-80 cells following 4 h pretreatment with IL1 or TNF or without such
pretreatment were tested for their vulnerability to the cytolytic effect
of TNF applied for 12 h together with the indicated sensitizing agents.
Viability of the cells is presented as neutral red uptake (OD540)
and, in cultures with TNF, percentagewise as compared to the viability in
cultures incubated with the sensitizing agent alone.

Balb/c mice = assay: Lethality of TNF and IL-1 in mice sensitized with Act-D or GalN; assay type: in vivo, mouse; conditions: i.p., sensitizer injected 10 minutes before TNF or IL-1
Description: Nine to thirteen weeks old Balb/c mice were used in all experiments. TNF, IL-1, LPS, actinomycin-D (Act-D) and D-galactosamine (GalN) were solubilized in PBS and injected i.p.; each in aliquots of 0.5 ml. For lethality determination TNF, IL-1 or LPS were administered alone or 10 minutes following injection of Act-D or GalN; for desensitization experiments mice were injected with TNF or IL-1 12 h prior to a challenge consisting of the same regimen as the lethality testing. Following treatments the mice were continuously observed for a period of 72 h in order to determine the time of their death. In all cases, mice that survived 72 h appeared completely normal at that time. […] All experiments were performed in duplicate with qualitatively the same results. Two mice were examined for each experimental point, in each of the experiments. Their actual survival time as well as the average of the survival time of the two mice used for each of the points are presented.
In an attempt to elucidate the nature of the sensitizing effect of Act-D and of GalN, it was tested whether injection of TNF or IL-1 in the absence of these agents affects the response of mice to a subsequent injection of TNF or IL-1 together with Act-D or GalN. […]

[1] = tested on: receptors for TNF on SV-80 cells; assay: Binding of radiolabelled TNF to SV-80 cells, Scatchard plot analysis; assay type: cell-based, human; conditions: Scatchard analysis of 125I-TNF binding
Description: (PMA-4-beta-phorbol-12-myristate-13-acetate).
Binding of ^125 I-rTNF (at 3.6 ng/ml), ^125 I-rIL-1 (at 49 ng/ml) and ^125 I-rIFN-gamma (at 13 ng/ml) to the indicated cells was determined at […] as described below. Competition of IL-1 and TNF with each other for binding to their receptors was examined by applying the nonlabelled cytokines, at the indicated concentrations, simultaneously with the labelled proteins to the binding asay. The effect of pretreatment with IL-1 or TNF was examined by applying the proteins on the cells at 37° C. for 4 h prior to application of the labelled cytokines. Human TNF and IFN-gamma were radiolabelled as previously described (30, 44); the first with the chloramine T reagent to specific radioactivity of 42 Ci/g, and the second with the Bolton and Hunter reagent to specific radioactivity of 18 Ci/g. IL-1 was radioiodinated with the chloramine T reagent (31) to specific radioactivity of 40 Ci/g. Recovery of bioactivity following the iodination, as estimated by measuring the protective effect of the protein against the cytotoxicity of TNF (25) was over 95%. […] Specific binding was calculated by subtracting the values of nonspecific binding from the binding observed with the labelled cytokines alone. […]

## Cc1c2oc3c(C)ccc(C(=O)N[C@@H]4C(=O)N[C@H](C(C)C)C(=O)N5CCC[C@H]5C(=O)N(C)CC(=O)N(C)[C@@H](C(C)C)C(=O)O[C@@H]4C)c3nc-2c(C(=O)N[C@@H]2C(=O)N[C@H](C(C)C)C(=O)N3CCC[C@H]3C(=O)N(C)CC(=O)N(C)[C@@H](C(C)C)C(=O)O[C@@H]2C)c(N)c1=O [actinomycin D] (I: T[dV]P[Sar][NMeV] / II: T[dV]P[Sar][NMeV]; ester I:1-I:C, II:1-II:C; linker I:N-II:N via Actinocin(9to1))
SV-80 cells
  Cell viability upon treatment with TNF (500 U/ml), pretreatment with IL-1 (2 U/ml), OD540: 0.215 OD540
  Cell viability upon treatment with TNF (500 U/ml), pretreatment with IL-1 (2 U/ml), %: 88%
  Cell viability upon treatment with TNF (500 U/ml), pretreatment with TNF (20 U/ml), OD540: 0.236 OD540
  Cell viability upon treatment with TNF (500 U/ml), pretreatment with TNF (20 U/ml), %: 97%
  Cell viability in absence of TNF, OD540: 0.243 OD540
  Cell viability upon treatment with TNF (500 U/ml), no pretreatment, OD540: 0.052 OD540
  Cell viability upon treatment with TNF (500 U/ml), no pretreatment, %: 21%
Balb/c mice
  Sensitization of mice to the lethal effect of TNF and IL-1: sensitize mice to the lethal effect of TNF and IL-1

## N[C@H]1C(O)O[C@H](CO)[C@H](O)[C@@H]1O (stereo partly drawn) [GalN, D-galactosamine]
Balb/c mice
  Sensitization of mice to the lethal effect of TNF and IL-1: sensitize mice to the lethal effect of TNF and IL-1

## CC[C@H]1CN2CCc3cc(OC)c(OC)cc3[C@@H]2C[C@@H]1C[C@H]1NCCc2cc(OC)c(OC)cc21 [emetine]
SV-80 cells
  Cell viability upon treatment with TNF (500 U/ml), pretreatment with IL-1 (2 U/ml), OD540: 0.220 OD540
  Cell viability upon treatment with TNF (500 U/ml), pretreatment with IL-1 (2 U/ml), %: 84%
  Cell viability upon treatment with TNF (500 U/ml), pretreatment with TNF (20 U/ml), OD540: 0.234 OD540
  Cell viability upon treatment with TNF (500 U/ml), pretreatment with TNF (20 U/ml), %: 89%
  Cell viability in absence of TNF, OD540: 0.262 OD540
  Cell viability upon treatment with TNF (500 U/ml), no pretreatment, OD540: 0.029 OD540
  Cell viability upon treatment with TNF (500 U/ml), no pretreatment, %: 11%

## C[C@@H]1C[C@@H]([C@H](O)CC2CC(=O)NC(=O)C2)C(=O)[C@@H](C)C1 [cycloheximide]
SV-80 cells
  Cell viability upon treatment with TNF (500 U/ml), pretreatment with IL-1 (2 U/ml), OD540: 0.163 OD540
  Cell viability upon treatment with TNF (500 U/ml), pretreatment with IL-1 (2 U/ml), %: 72%
  Cell viability upon treatment with TNF (500 U/ml), pretreatment with TNF (20 U/ml), OD540: 0.195 OD540
  Cell viability upon treatment with TNF (500 U/ml), pretreatment with TNF (20 U/ml), %: 86%
  Cell viability in absence of TNF, OD540: 0.226 OD540
  Cell viability upon treatment with TNF (500 U/ml), no pretreatment, OD540: 0.020 OD540
  Cell viability upon treatment with TNF (500 U/ml), no pretreatment, %: 9%

## CCCCCCCCCCCCCC(=O)OC1C(C)C2(O)C(C=C(CO)CC3(O)C(=O)C(C)=CC32)C2C(C)(C)C12OC(C)=O (stereo not drawn) [PMA, 4-beta-phorbol-12-myristate-13-acetate]
[1]
  Effect on number and affinity of binding sites for TNF: affect only the number of binding sites for TNF and not their affinity
